This passage reports Ki, α1 % inhibition and α2 % inhibition results from patent US7153858B2, “Arylpiperazinyl compounds” (Epix Delaware, Inc., priority 2003, dated 2006).

Holding throughout (format): binding
The target of one experiment is T1, 5-HT1A (Homo sapiens, UniProt P08908).
T1 sequence (P08908 1-422): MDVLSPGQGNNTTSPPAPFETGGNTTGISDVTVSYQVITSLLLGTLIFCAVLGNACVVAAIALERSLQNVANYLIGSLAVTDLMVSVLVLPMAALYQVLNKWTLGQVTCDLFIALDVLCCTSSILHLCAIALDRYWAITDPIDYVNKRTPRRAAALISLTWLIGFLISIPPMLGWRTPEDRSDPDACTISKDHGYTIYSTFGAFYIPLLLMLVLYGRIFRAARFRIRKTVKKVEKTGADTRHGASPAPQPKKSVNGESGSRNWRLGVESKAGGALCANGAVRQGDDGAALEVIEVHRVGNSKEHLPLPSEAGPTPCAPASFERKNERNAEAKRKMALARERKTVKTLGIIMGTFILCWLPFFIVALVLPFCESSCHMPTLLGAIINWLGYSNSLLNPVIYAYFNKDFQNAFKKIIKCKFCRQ
The experiment is described as follows: 5-HT1A receptor affinity (Ki), Table 1.

Another experiment has as its system α1. As to the kind of experiment: α1 cross-reactivity (% inhibition / Ki), Table 1.
Another experiment concerns α2. The experiment is described as follows: α2 cross-reactivity (% inhibition / Ki), Table 1.

Structures are written as SMILES. Where a name gives a salt, the structure may show the parent alone. Read-outs that look alike come from different tables or passages of the source. Some results are limits rather than exact numbers.

What is called Ki is the dissociation constant of the complex between target and ligand, obtained from inhibition or displacement.

With `O=S(=O)(c1ccc(F)cc1)N1CCC(CN2CCN(c3ccccn3)CC2)CC1` [1-[1-(4-Fluoro-benzenesulfonyl)-piperidin-4-ylmethyl]-4-pyridin-2-yl-piperazine], on 5-HT1A (read-out: 5-HT1A (Ki)), the Ki stood at 21 nM. This molecule returned a α1 % inhibition with α1 of 42%. The molecule also showed a α2 % inhibition with α2 of 68%.

The molecule `Cc1ccc(S(=O)(=O)NCCCCN2CCN(c3cccc(NC(=O)C(C)(C)C)c3)CC2)cc1` [2,2-Dimethyl-N-(3-{4-[4-(toluene-4-sulfonylamino)-butyl]-piperazin-1-yl}-phenyl)-propionamide] gave a α1 % inhibition with α1 of 0%. In addition, the α2 % inhibition in the experiment with α2 is reported as 11%.

As for `Cc1ccc(S(=O)(=O)NCCCCN2CCN(c3cccc(NS(=O)(=O)C(C)C)c3)CC2)cc1` [4-Methyl-N-(4-{4-[3-(propane-2-sulfonylamino)-phenyl]-piperazin-1-yl}-butyl)-benzenesulfonamide], the Ki at 5-HT1A (read-out: 5-HT1A (Ki)) came out at 78 nM. The molecule also displayed a α1 % inhibition in the experiment on α1 of 15%. The molecule also had a α2 % inhibition in the experiment with α2 of less than 10%.

Turning to `Cc1ccc(S(=O)(=O)NCCCCN2CCN(c3ccccc3)CC2)cc1` [4-Methyl-N-[4-(4-phenyl-piperazin-1-yl)-butyl]-benzenesulfonamide], at 5-HT1A (read-out: 5-HT1A (Ki)), the inhibitory constant (Ki) came out at 40 nM. In addition, the α1 % inhibition with α1 stood at 98%. This molecule returned a α2 % inhibition in the experiment with α2 of 90%.

As to `Cc1ccc(S(=O)(=O)NCCCCN2CCN(c3cccc([N+](=O)[O-])c3)CC2)cc1` [4-Methyl-N-{4-[4-(3-nitro-phenyl)-piperazin-1-yl]-butyl}-benzenesulfonamide HCl salt], on 5-HT1A (read-out: 5-HT1A (Ki)), the Ki is 105 nM. In addition, the α1 % inhibition in the experiment on α1 (HCl salt) was determined as 61%. For the same molecule, the α2 % inhibition with α2 (HCl salt) was found to be 23%.

In the case of `Cc1ccc(S(=O)(=O)NCCCCN2CCN(c3cccc([N+](=O)[O-])c3)CC2)cc1` [4-Methyl-N-{4-[4-(3-nitro-phenyl)-piperazin-1-yl]-butyl}-benzenesulfonamide], the Ki on 5-HT1A (read-out: 5-HT1A (Ki)) was 125 nM. For the same molecule, the α1 % inhibition in the experiment with α1 is on record as 56%. Further, in the experiment with α2, the α2 % inhibition is on record as 14%.

Turning to `CN(C)c1cccc(N2CCN(CC3CCN(S(=O)(=O)c4ccc(F)cc4)CC3)CC2)c1` [(3-{4-[1-(4-Fluoro-benzenesulfonyl)-piperidin-4-ylmethyl]-piperazin-1-yl}-phenyl)-dimethyl-amine], the Ki at 5-HT1A (read-out: 5-HT1A (Ki)) was determined as 507 nM. For the same molecule, the α1 % inhibition in the experiment on α1 stood at 74%. Also, in the experiment on α2, the α2 % inhibition came to 0%.

In the case of `O=S(=O)(CC1CCCCC1)NCCCCN1CCN(c2ccccn2)CC1` [C-Cyclohexyl-N-[4-(4-pyridin-2-yl-piperazin-1-yl)-butyl]-methanesulfonamide], the Ki on 5-HT1A (read-out: 5-HT1A (Ki)) amounted to 6.5 nM. The molecule also returned a α1 % inhibition with α1 of 81%. In the experiment with α2, this molecule displayed a α2 % inhibition of 51%.

The molecule `COc1ccccc1N1CCN(CCCCNS(=O)(=O)CC2CCCCC2)CC1` [C-Cyclohexyl-N-{4-[4-(2-methoxy-phenyl)-piperazin-1-yl]-buty] [C-Cyclohexyl-N-{4-[4-(2-methoxy-phenyl)-piperazin-1-yl]-butyl}-methanesulfonamide] came in with a α1 % inhibition with α1 of 98%.

In the case of `CN(C)c1cccc(N2CCN(CCCCNS(=O)(=O)CC3CCCCC3)CC2)c1` [C-Cyclohexyl-N-{4-[4-(3-dimethylamino-phenyl)-piperazin-1-yl]-butyl}-methanesulfonamide], on 5-HT1A (read-out: 5-HT1A (Ki)), the Ki came to 110 nM. Besides, in the experiment with α1, the α1 % inhibition turned out to be 85%. Moreover, the α2 % inhibition in the experiment with α2 came to 25%.

On 5-HT1A (5-HT1A (Ki)), `Cl.O=C(Nc1cccc(N2CCNCC2)c1)C1CC1` [Cyclopropanecarboxylic acid (3-piperazin-1-yl-phenyl)-amide HCl] had a Ki of 4.6 nM. The α1 % inhibition with α1 came out at 0%. The α2 % inhibition with α2 was determined as 14%.

With `Cc1ccc(S(=O)(=O)NCCCCN2CCN(c3cccc(NC(=O)C4CC4)c3)CC2)cc1` [Cyclopropanecarboxylic acid (3-{4-[4-(toluene-4-sulfonylamino)-butyl]-piperazin-1-yl}-phenyl)-amide], the Ki on 5-HT1A (read-out: 5-HT1A (Ki)) came to 21 nM. Further, the α1 % inhibition with α1 was determined as 40%. In the experiment with α2, this molecule had a α2 % inhibition of 15%.

Consider `O=C(Nc1cccc(N2CCN(CCCCNS(=O)(=O)CC3CCCCC3)CC2)c1)C1CC1` [Cyclopropanecarboxylic acid {3-[4-(4-cyclohexylmethanesulfonylamino-butyl)-piperazin-1-yl]-phenyl}-amide], for which, at 5-HT1A (read-out: 5-HT1A (Ki)), the Ki came to 8.9 nM. The α1 % inhibition in the experiment on α1 was determined as 22%. In the experiment on α2, the α2 % inhibition was less than 10%.

On to `CC(=O)Nc1cccc(N2CCNCC2)c1.Cl` [N-(3-Piperazin-1-yl-phenyl)-acetamide HCl], for which the affinity on 5-HT1A (5-HT1A (Ki)), expressed as Ki, was 2.9 nM. Further, the α1 % inhibition in the experiment on α1 came to 0%. Further, the α2 % inhibition in the experiment on α2 came to 35%.

As to `CC(=O)Nc1cccc(N2CCN(CC3CCN(S(=O)(=O)c4ccc(F)cc4)CC3)CC2)c1` [N-(3-{4-[1-(4-Fluoro-benzenesulfonyl)-piperidin-4-ylmethyl]-piperazin-1-yl}-phenyl)-acetamide], the Ki on 5-HT1A (read-out: 5-HT1A (Ki)) was 13 nM. In the experiment with α1, this molecule showed a α1 % inhibition of 49%. This molecule returned a α2 % inhibition with α2 of less than 10%.

Take `CC(=O)Nc1cccc(N2CCN(CC3CCN(S(=O)(=O)C(C)C)CC3)CC2)c1` [N-(3-{4-[1-(Propane-2-sulfonyl)-piperidin-4-ylmethyl]-piperazin-1-yl}-phenyl)-acetamide]: the inhibition constant (Ki) on 5-HT1A (read-out: 5-HT1A (Ki)) worked out at 112 nM. The same molecule returned a α1 % inhibition in the experiment on α1 of less than 10%. The molecule further displayed a α2 % inhibition in the experiment with α2 of less than 10%.

As to `CC(=O)Nc1cccc(N2CCN(CCCCNS(=O)(=O)CC(C)C)CC2)c1` [N-(3-{4-[4-(2-Methyl-propane-1-sulfonylamino)-butyl]-piperazin-1-yl}-phenyl)-acetamide], on 5-HT1A (read-out: 5-HT1A (Ki)), the Ki is 11 nM. In the experiment with α1, this molecule returned a α1 % inhibition of 5%. In addition, the α2 % inhibition with α2 was 0%.

Take `CC(=O)Nc1cccc(N2CCN(CCCCNS(=O)(=O)c3ccc(F)cc3)CC2)c1` [N-(3-{4-[4-(4-Fluoro-benzenesulfonylamino)-butyl]-piperazin-1-yl}-phenyl)-acetamide]: at 5-HT1A (read-out: 5-HT1A (Ki)), the Ki came to 18 nM. Moreover, the α1 % inhibition in the experiment with α1 stood at 39%. The same molecule came in with a α2 % inhibition in the experiment on α2 of less than 10%.

Take `CC(=O)Nc1cccc(N2CCN(CCCCN(C)S(=O)(=O)CC3CCCCC3)CC2)c1` [N-(3-{4-[4-(Cyclohexylmethanesulfonyl-methyl-amino)-butyl]-piperazin-1-yl}-phenyl)-acetamide]: the inhibition constant (Ki) at 5-HT1A (read-out: 5-HT1A (Ki)) turned out to be 1.3 nM. This molecule gave a α1 % inhibition in the experiment on α1 of 37%. On α2, this molecule showed a Ki of 616 nM and a α2 % inhibition of 47%.

With `CC(=O)Nc1cccc(N2CCN(CCCCNS(=O)(=O)C(C)C)CC2)c1` [N-(3-{4-[4-(Propane-2-sulfonylamino)-butyl]-piperazin-1-yl}-phenyl)-acetamide], at 5-HT1A (read-out: 5-HT1A (Ki)), the Ki is 24 nM. Further, the α1 % inhibition with α1 was less than 10%. The same molecule had a α2 % inhibition in the experiment with α2 of 12%.

Consider `CCCC(=O)Nc1cccc(N2CCN(CCCCNS(=O)(=O)c3ccc(C)cc3)CC2)c1` [N-(3-{4-[4-(Toluene-4-sulfonylamino)-butyl]-piperazin-1-yl}-phenyl)-butyramide], for which the Ki at 5-HT1A (read-out: 5-HT1A (Ki)) was 56 nM. For the same molecule, the α1 % inhibition in the experiment with α1 worked out at 12%. In the experiment with α2, the α2 % inhibition was 12%.

As to `Cc1ccc(S(=O)(=O)NCCCCN2CCN(c3cccc(NC(=O)C(C)C)c3)CC2)cc1` [N-(3-{4-[4-(Toluene-4-sulfonylamino)-butyl]-piperazin-1-yl}-phenyl)-isobutyramide], at 5-HT1A (read-out: 5-HT1A (Ki)), the Ki was 47 nM. The molecule further returned a α1 % inhibition in the experiment with α1 of 47%. The molecule also yielded a α2 % inhibition in the experiment with α2 of 12%.

As for `CCC(=O)Nc1cccc(N2CCN(CCCCNS(=O)(=O)c3ccc(C)cc3)CC2)c1` [N-(3-{4-[4-(Toluene-4-sulfonylamino)-butyl]-piperazin-1-yl}-phenyl)-propionamide], the Ki on 5-HT1A (read-out: 5-HT1A (Ki)) is 213 nM. In the experiment on α1, this molecule returned a α1 % inhibition of 0%. Further, in the experiment on α2, the α2 % inhibition was found to be 31%.

As to `CC(=O)Nc1cccc(N2CCN(CC3CCN(S(=O)(=O)CC4CCCCC4)CC3)CC2)c1` [N-{3-[4-(1-Cyclohexylmethanesulfonyl-piperidin-4-ylmethyl)-piperazin-1-yl]-phenyl}-acetamide], the Ki at 5-HT1A (read-out: 5-HT1A (Ki)) was 10 nM. In addition, in the experiment with α1, the α1 % inhibition worked out at 13%. For the same molecule, the α2 % inhibition in the experiment with α2 was less than 10%.

For the molecule `CC(=O)Nc1cccc(N2CCN(CCCCNS(=O)(=O)C3CCCCC3)CC2)c1` [N-{3-[4-(4-Cyclohexanesulfonylamino-butyl)-piperazin-1-yl]-phenyl}-acetamide], the inhibition constant Ki at 5-HT1A (read-out: 5-HT1A (Ki)) stood at 40 nM. The molecule further returned a α1 % inhibition in the experiment with α1 of less than 10%. This molecule gave a α2 % inhibition in the experiment with α2 of 12%.

Consider `CC(=O)Nc1cccc(N2CCN(CCCCNS(=O)(=O)CC3CCCCC3)CC2)c1` [N-{3-[4-(4-Cyclohexylmethanesulfonylamino-butyl)-piperazin-1-yl]-phenyl}-acetamide], for which the Ki on 5-HT1A (read-out: 5-HT1A (Ki)) is 5.1 to 11 nM. Also, the α2 % inhibition in the experiment with α2 is on record as less than 10%.

`CCS(=O)(=O)Nc1cccc(N2CCN(CCCCNS(=O)(=O)c3ccc(C)cc3)CC2)c1` [N-{4-[4-(3-Ethanesulfonylamino-phenyl)-piperazin-1-yl]-butyl}-4-methyl-benzenesulfonamide]: the Ki on 5-HT1A (read-out: 5-HT1A (Ki)) amounted to 141 nM. The same molecule gave a α1 % inhibition with α1 of 47%. Moreover, in the experiment on α2, the α2 % inhibition is reported as 14%.

Turning to `Cc1ccc(S(=O)(=O)NCCCCN2CCN(c3cccc(NS(C)(=O)=O)c3)CC2)cc1` [N-{4-[4-(3-Methanesulfonylamino-phenyl)-piperazin-1-yl]-butyl}-4-methyl-benzenesulfonamide], the Ki on 5-HT1A (read-out: 5-HT1A (Ki)) stood at 46 nM. Besides, in the experiment on α1, the α1 % inhibition is recorded as 51%. Further, in the experiment on α2, the α2 % inhibition amounted to 21%.
